Measurements taken from patent US8119116B2, “Therapeutics for cancer using 3-bromopyruvate and other selective inhibitors of ATP production” (John Hopkins University School of Medicine, priority 2001, dated 2012).

Columns and labels:
[1] = tested on: hexokinase bound to the mitochondrial fraction of the VX2 tumor; experiment: Hexokinase activity of the VX2 tumor mitochondrial fraction; type: biochemical, rabbit; details: 5 mM, VX2 tumor mitochondria
Method: (§1) The freshly isolated liver or VX2 tumor tissues (15-20 g wet weight) was rinsed in 3 volumes of H-medium (210 mM D-mannitol, 70 mM sucrose, 2 mM Hepes, and 0.05% bovine albumin, pH 7.4) at 4° C. and minced with a razor blade as finely as possible. A 30% (V/V) suspension was made using ice-cold H-medium in a Potter-Elvehjem glass homogenizer (55 ml capacity), and homogenization was achieved by applying 4 complete up and down strokes through the suspension with a rotating (˜400 rpm), serrated, teflon pestle attached to a motor. To remove cell debris and nuclei, the resultant homogenate was diluted to twice the initial volume and centrifuged at 630×g for 8 minutes at 4° C. in a Sorvall RC-2B centrifuge using a GSA rotor. The supernatant was removed and then centrifuged at 6,800 g for 15 min under the same conditions. The resultant supernatant was saved and referred to here as the cytosolic faction. The pellet was resuspended in the initial volume of H-medium and centrifuged twice at 9,800×g for 15 min at 4° C. The washed pellet represents the mitochondrial fraction.
The assay coupled the glucose-6-phosphate formed in the hexokinase reaction to the glucose-6-phosphate dehydrogenase reaction. Here, NADP+, oxidizes glucose-6-phosphate to a g-lactone while becoming reduced to NADPH, thus allowing the formation of the latter to be monitored spectrophotometrically at 340 nm. […]

[2] = tested on: liver implanted VX2 tumors; experiment: Systemic delivery via marginal ear vein, effect on liver implanted VX2 tumors; type: in vivo, rabbit; details: 25 ml, 0.5 mM via a marginal ear vein
Method: (§2) Normal tissues and tumors were fixed in 10% formalin, sliced at […] intervals for gross examination, and then embedded completely in paraffin after which […] sections were stained with hemotoxylin and eosin. Tumor viability was estimated by visual inspection and expressed as a percentage of viable tumor area for each slice. The overall percentage of viable tumor in each rabbit was calculated.
Finally, it was important to examine the effect of 3-BrPA when delivered systemically (i.e., via the general circulation) on both animal toxicity and its capacity to damage liver implanted tumors.

[3] = tested on: rabbit VX2 tumor mitochondria; experiment: Mitochondrial respiration (oxygen consumption); type: biochemical; details: 1.2 mM
Method: as §1, with “The pellet was resuspended in the initial volume of H-medium and centrifuged twice at 9,800×g for 15 min at 4° C. The washed pellet represents the mitochondrial fraction.” left out
Oxygen consumption rates were measured polarographically using a Clark oxygen electrode inserted into a 2.5 ml chamber equipped with a magnetic stirrer. […] The loss of oxygen was monitored in a 2.1 ml system at 25° C. containing 1 mg mitochondria, 0.5 mM EDTA, 2.0 mM Hepes, 220 mM D-mannitol, 70 mM sucrose, 2.5 mM KPi, 2.6 mM MgCl2, and 0.5 mg/ml bovine albumin, and, where indicated, 7.8 mM succinate (respiratory substrate), and 0.24 mM ADP (ATP synthesis substrate). […]

[4] = tested on: surrounding liver tissue and major tissues; experiment: Histology of surrounding liver and major tissues after intraarterial injection or embolization; details: rabbit, in vivo
Method: Administration of anesthesia, intravenous access and sodium pentothal anesthesia were carried out as described in Example 12. Transcatheter hepatic artery injection of 3-BrPA was performed under fluoroscopy. The animals were brought to the angiography suite and intubated using a size 3.0 mm endotracheal tube (Mallinkrodt Medical, St. Louis, Mo.) but not ventilated. Surgical cut-down was performed to gain access into the right common femoral artery, after which a 3 French sheath (Cook Inc., Bloomington, Ind.) was placed. A specially manufactured 2 French catheter with a tip in the shape of a hockey-stick (JB1 catheter, Cook Inc., Bloomington, Ind.) was manipulated into the celiac axis after which a celiac arteriogram was performed in order to delineate the blood supply to the liver and confirm the location of the tumor. The tumor could readily be visualized as a region of hypervascular blush located on the left side of the liver near the gastric fundus. […]
as §2, with “calculated. […]” for “calculated.”

AS-30D hepatoma cells = experiment: Hepatoma cell viability by trypan blue; type: cell-based, rat; details: 5 mM, 12 h
Method: AS-30D hepatoma cells grown in the peritoneal cavity of Sprague Dawley female rats (see Materials) were adapted to grow in tissue culture in Dulbecco's modified Eagle's medium containing 10% fetal bovine serum. Cells were maintained at 37° C. in a humidified atmosphere containing 5% CO2, and counted in a Neubauer chamber after trypan blue dye addition (cell/dye volume=1/1) by visualization under a Nikon inverted microscope.
The studies described above using the VX2 tumor model for liver cancer predict that 2DOG and 3BrPA may have the capacity to kill hepatoma cells expressing the high glycolytic/high hexokinase phenotype. […] Cell killing was assessed in these experiments by counting those cells in which trypan blue had entered.

O=C(O)C(=O)CBr [3BrPA, 3-bromopyruvic acid]
inhibition of the hexokinase reaction [1]: inhibits completely
killing effect on liver implanted VX2 tumors [2]: no killing effect
inhibition of mitochondrial respiration (basal succinate rate and ADP stimulated rate) [3]: completely inhibits
damage to 9 major tissues [4]: In no case was there evidence for damage
state of portal veins, sinusoids and bile ducts [4]: remained completely intact
cells killed (trypan blue uptake) (AS-30D hepatoma cells): killing all cells
